Where two headings read alike, the source gives them in different places.
Tests used:
[1] = parameters: method as in PMID 17766353; details: cited from earlier work
[2] = Solubility of DHE in GCA micelles (DHE fluorescence intensity); type: physicochemical; details: GCA 10 mM; Figure S6
Description: S5 – Solubility of DHE in GCA micelles
The solubility of DHE in the GCA micelles at the concentration of GCA used in the
permeability assays (10 mM) was characterized from variations in DHE fluoresc ence in-
tensity. The c once ntrati on of DHE was varied from 1 to 70 μM, with DHE bei ng ad ded to
the GCA solution by squirti ng a small v olume of a DHE solution i n DMSO (% DMSO < 1
%). The solutions obtai ned were optically clear and stable. However, the flu oresce nce in-
tensity measured in a right-angle geometry was not linearly dependent on the intensity
of light absorbed, Figure S6. This behaviour is in part due to geometr ical constraints due
to the right-angle detection, with a significant fluoresce nce being emitted but not detected.
present as small aggregates.
Figure S6. Dependence of DHE fluorescence intensity ex/em = 324/372 nm on the intensity of light
absorbed by DHE, when added to aqueous solutions containing 10 mM GCA. The hollow symbols
correspond to DHE concentrations equal to 1, 5 and 10 μM, and the filled symbols correspond to
DHE at 25, 50 and 70 μM. The line represents the best fit for the hollow symbols. […]

[3] = parameters: method as in PMID 4027244; details: aqueous media; cited from earlier work
[4] = Absorptive (apical to basolateral) DHE permeability assay through Caco-2 monolayers; type: in vitro ADME, human; details: human, Caco-2, pH 7.4, GCA 10 mM, absence of coffee, 6 h, read-out: DHE apparent permeability coefficient (Papp)
Description: (§1) For transport experiments, the Caco-2 monolayers were prepared by seeding the cells at a density of 2.6 × 10^5 cells/cm^2 on 12-well polycarbonate Transwell^TM plates, following protocols previously defined for this assay. The cells were cultured until monolayer differentiation, for a total of 24 days, with culture medium being renewed every two days. On the day of the experiment, the culture medium was removed and replaced by HBSS medium pre-warmed at 37 °C (0.5 mL in the apical and 1.5 mL in the basolateral sides). The cell monolayers were placed in an incubator at 37 °C with a plate orbital shaker (IKA-Schüttler MTS4) at 50 rpm for 8 min. After two washing steps, the transepithelial electrical resistance (TEER) values were measured using a Millicell® ERS-2 voltmeter (Merck). The net TEER values (Ω cm^2) were obtained by subtracting the cell-free filter resistance and multiplying by filter area. All cell monolayers achieved TEER values exceeding 700 Ω cm^2 and were considered adequate for transport experiments.
(§2) In assessing the influence of coffees samples on DHE absorption by intestinal epithelia, the transport was studied in the absorptive way; that is, in the apical (mimicking the intestinal lumen) to the basolateral (mimicking the bloodstream) direction. The solutions of DHE to be applied in the apical side were prepared as follows: first, the lyophilized coffee extracts (16-fold diluted) were dissolved with GCA (10 mM) solution in HBSS. Then, the mixtures were allowed to equilibrated overnight in a 37 °C in a water bath with shaking at 100 rpm. On the day of the experiment, DHE was added to the coffee/GCA mixture or to GCA only (Control) as an aliquot from a DMSO stock of 10 mM DHE. Addition was performed under vigorous vortex mixing to facilitate DHE interaction with the GCA micelles and prevent its precipitation. The final DHE concentration ranged from 10 to 100 μM, corresponding to ≤1% (v/v) DMSO. To allow evaluation of the cell monolayer integrity in each permeability assay, the paracellular marker Lucifer Yellow (LY) was also added to the final mixtures at a concentration of 20 μM. The solutions were maintained at 37 °C until application in the permeability assay, and where optically clear.
(§3) It was therefore necessary to guarantee that the composition of the acceptor compartment in the permeability assay has an adequate ability to solubilize the sterol and allow its quantification. To approach the in vivo conditions in absorptive cholesterol transport, the acceptor compartment contained serum albumin at 100 µM, which corresponds to the concentration usually found in interstitial tissues. Serum albumin binds the cholesterol analog DHE with low to moderate affinity, KB = 5 × 10^4 [37], and at the concentration used DHE solubility is increased by at least an order of magnitude. To decrease the adsorption of DHE to the plate well and to the basolateral membrane, the transport media added to the basolateral side contained additionally 1% (v/v) DMSO. The presence of BSA and DMSO lead to improved sink conditions and higher DHE recoveries. The solutions from the acceptor compartments in the permeability assay where lyophilized directly in the wells of the permeability assay. A small amount of water was then added to facilitate detachment from the plate and solubilize salts and BSA. Ice-cold methanol was then added to dissolve DHE and precipitate the serum albumin. The DHE recovery efficiency when following this procedure was at least 90% (for details see Table S3 of the Supplementary Materials).
(§4) To start the absorptive transport experiments, the HBSS on the apical side was removed and replaced with 450 μL of the test solution (emulsified DHE + LY, emulsified DHE + coffee + LY or LY solutions). After addition of the test solution, 50 μL was collected (corresponding to a time delay of about 2 min) and the inserts were moved to a 12-well plate containing 1.2 mL of the basolateral transport medium. […]

Caco-2 monolayers [5] = test: as above; type: in vitro ADME, human
Description: as §1, §2, §3, §4

[6] = parameters: method as in PMID 27079626, PMID 22569559; details: cited from earlier work
[7] = 50 mM bile salt concentration; cited from earlier work
[8] = MTT cell viability assay (bile salts and coffee extracts); type: cell-based; details: human, Caco-2 cells, pH 7.4; for viability at 2 h: Figure S4 (incubation 2 h)
Description: The influence of bile salts and coffee extracts on the Caco-2 cells viability was assessed with the MTT assay for determination of mitochondrial activity in active cells. Briefly, the cells were seeded in 96-well plates at a density of 1 × 10^4 cells/well in 200 μL of medium. Cells were then maintained in culture until confluence, for 96 h with medium renewal after 3 days. Solutions of individual bile salts GCDCA, GDCA, GCA and the combination of all three were prepared in the transport buffer HBSS (containing 25 mM HEPES, 0.35 g/L sodium bicarbonate, pH 7.4) at several concentrations above their critical micellar concentration (CMC). Two-fold serial dilutions of individual coffee extracts or mixtures with the bile salts were prepared by diluting the lyophilized extracts in HBSS or HBSS plus bile salts. The following controls were also included: 20% (v/v) of dimethyl sulfoxide (DMSO) in HBSS (positive control) and only HBSS (negative control). The cells were incubated for 6 h with test samples or controls (200 μL). Then, the cells were washed with PBS and incubated with 150 μL of MTT diluted in medium (0.5 mg/mL) for 4 h at 37 °C. Finally, the medium was discarded, and the formazan crystals produced by active cells were solubilized with dimethyl sulfoxide (150 μL) for 15 min under continuous stirring. The absorbances were measured at 570 nm in a Synergy HT Microplate Reader (BioTek Instruments, Inc., Winooski, VT, USA). All conditions were performed in triplicate. Results are expressed as a percentage of cell viability relative to the negative control.

Caco-2 monolayers [9] = test: Lucifer Yellow paracellular permeability through Caco-2 monolayers (cell monolayer integrity); type: in vitro ADME, human
Description: as §1, §2
To start the absorptive transport experiments, the HBSS on the apical side was removed and replaced with 450 μL of the test solution (emulsified DHE + LY, emulsified DHE + coffee + LY or LY solutions). After addition of the test solution, 50 μL was collected (corresponding to a time delay of about 2 min) and the inserts were moved to a 12-well plate containing 1.2 mL of the basolateral transport medium. The plate was kept at 37 °C under stirring at 50 rpm for a total period of 6 h, with the assays being performed with either a single point sampling or three-points with 2 h sampling intervals. During the three-point sampling assay, 25 μL of the apical compartment was withdrawn at 2 and 4 h and replaced with fresh HBSS. At each time point indicated, the insert was also moved to another 12-well plate containing fresh basolateral medium (transfer sampling). At the end of the experiment (t6h), the inserts were transferred into empty wells and 50 μL were collected from the apical compartment and the remaining solution was decanted and stored. The 12-well plates with the samples of the basolateral compartments were frozen (−18 °C) and lyophilized. The same procedure was also applied to the aliquots of the apical side. All samples were then stored in a humidity-controlled environment until analysis.
The paracellular permeability of each cell monolayer was assessed by the quantification of LY transport from the apical and basolateral sides. For the samples from the apical side, aliquots of 50 μL were withdrawn at the beginning and end of the permeation experiment. The samples were diluted 30-fold and 100 µL were transferred to a 96-wells plate with clear bottom and black sides (Thermo Scientific Nunc). […]

[10] = average over Table 2 samples (DHE 10, 50 and 100 µM)
[11] = multi-time point assay, LY 20 µM alone or with DHE 10 µM emulsified by GCA 10 mM, without or with coffee extract (16-fold diluted), n = 2

CC(C)[C@@H](C)C=C[C@@H](C)[C@H]1CC[C@H]2C3=CC=C4C[C@@H](O)CC[C@]4(C)C3=CC[C@]12C [DHE, ergosta-5,7,9(11),22-tetraen-3β-ol]
characteristic rate constant for desorption from membranes ([1]; liquid disordered phase): 0.001 s⁻¹
characteristic rate constant for desorption from membranes ([1]; liquid ordered phase): 6.9e-05 s⁻¹
DHE emulsified by GCA [2]: up to 10 µM
estimated critical aggregation concentration [3]: 25 nM
Papp at 6 h, 50 µM ([4]; 50 µM DHE): 0.0017 ×10⁻⁶ cm/s
Papp at 6 h, 100 µM ([4]; 100 µM DHE): 0.026 ×10⁻⁶ cm/s
DHE in the acceptor (basolateral) compartment (Caco-2 monolayers [5]; DHE 10 µM apical, transfer sampling at 2, 4 and 6 h, detection limit 1.6 pmol): not detected
fraction of DHE that disappears from the apical transport media immediately after addition to the cell monolayers (Caco-2 monolayers [5]; DHE 10 µM, GCA 10 mM, about 2 min, control (no coffee) or with coffee brew diluted 16 times): 18.5 ± 3.9%
additional decrease of DHE in suspension in the apical compartment (Caco-2 monolayers [5]; DHE 10 µM, GCA 10 mM, at 4 and 6 h incubation): about 2%
amount of DHE extracted from the cells (Caco-2 monolayers [5]; end of permeability assay (6 h), DHE 10 µM, GCA 10 mM, control or with coffee brew): 16.3 ± 4.7%

C[C@H](CCC(=O)NCC(=O)O)[C@H]1CC[C@H]2[C@@H]3[C@H](O)C[C@@H]4C[C@H](O)CC[C@]4(C)[C@H]3C[C@H](O)[C@]12C [GCA, glycocholic acid]
critical micelle concentration (CMC) [6]: 6.5 mM
capacity to emulsify cholesterol [7]: 1.0 mM
viability at 6 h, 15 mM ([8]; GCA 15 mM, 6 h exposure, relative to HBSS control): 80%
viability at 2 h ([8]; GCA in HBSS at concentrations ≤12.5 mM): > 90%

CC(CCC(=O)NCC(=O)O)C1CCC2C3C(O)CC4CC(O)CCC4(C)C3CCC12C (stereo not drawn) [GCDCA, glycochenodeoxycholic acid]
critical micelle concentration (CMC) [6]: 1.6 mM
capacity to emulsify cholesterol [7]: 1.3 mM

CC(CCC(=O)NCC(=O)O)C1CCC2C3CCC4CC(O)CCC4(C)C3CC(O)C12C (stereo not drawn) [GDCA, glycodeoxycholic acid]
critical micelle concentration (CMC) [6]: 1.7 mM
capacity to emulsify cholesterol [7]: up to 3 mM
viability at 2 h ([8]; GDCA in HBSS, all tested concentrations (1.56–50 mM)): < 10%

Lucifer yellow CH di-potassium salt [LY]
Papp of LY, average value (Caco-2 monolayers [9]; [10]): 0.13 ×10⁻⁶ cm/s
amount of LY transported over the 6 h incubation, average value (Caco-2 monolayers [9]; [10]): 0.8%
Papp of LY (×10^−6) (Caco-2 monolayers [9]; multi-time point assay, last time interval of 2 h, LY alone or with DHE 10 µM/GCA 10 mM, without or with coffee extract, n = 2): 0.64 ×10^−6 cm/s
% Transport of LY 0–2 h (Caco-2 monolayers [9]; [11]): 1.6%
% Transport of LY 2–4 h (Caco-2 monolayers [9]; [11]): 0.9%
% Transport of LY 4–6 h (Caco-2 monolayers [9]; [11]): 1.3%
% Transport of LY 6 h (Caco-2 monolayers [9]; single time point 6 h, LY only): 1.6%
Papp of LY (×10^−6) (Caco-2 monolayers [9]; single time point 6 h, LY only): 0.27 ×10^−6 cm/s
